Measured values reported in patent EP1298214A2, “Plant thioesterases” (Calgene LLC, priority 1990, dated 1991).

Columns and labels:
[1] = test system: pET3a control E. coli lysate; experiment: Acyl-ACP hydrolysis by control E. coli lysate (unmodified pET3a); assay type: biochemical; details: 1 hour induction with 1mM IPTG
Method: (§1) To assay for C12 thioesterase activity the following mixture is incubated at 30° for 30 min: "buffer" comprising 7mM KH2PO4-KOH pH 8, 20% v/v glycerol, 1mM dithiothreitol (DTT), 0.1% v/v Triton X100; sample to be tested for activity in the same or similar buffer as the "extraction buffer" described in Example 2; and 5µl of ^14C-radiolabeled lauroyl-ACP substrate for a total volume of 100µl and final lauroyl-ACP concentration of 0.5µM. Lauroyl-ACP substrate is prepared according to the method of Rock et al (Methods in Enzymology (1981) 72:397-403), using ACP prepared from Escherichia coli by the method of Rock and Cronan (Methods in Enzymology (1981) 71:341-351). The laurate is radiolabeled in the carboxylate group at a specific radioactivity of 50-60µCi/µmol.
(§2) The reaction is stopped by adding 0.5ml cold (0°) 10% v/v acetic acid. The fatty acid product of the hydrolytic enzyme action is extracted away from the unhydrolyzed substrate by adding 1ml diethyl ether and mixing vigorously. After settling for a few minutes the upper ether layer is transferred to 5ml scintillation fluid for determination of radioactivity by liquid scintillation spectrometry. Additional ether extractions may be performed to recover remaining traces of the reaction product for more accurate quantitation of the enzyme activity if desired. The amount of ether-extracted radioactivity is a direct measure of C12-preferring acyl-ACP thioesterase activity, provided the amount of enzyme is not sufficient to hydrolyze more than about 25% of the substrate. With greater activity than this the relationship between radioactivity in the ether layer and the quantity of enzyme becomes markedly nonlinear. The enzyme preparation must then be diluted appropriately to bring the activity into the linear range of the assay.
A pET3a vector (Rosenberg, et al., Gene (1987) 56:125-135) is used in an E. coil strain BL21 (PE3) (Studier and Moffat, J. Mol. Biol. (1986) 189:113-130) host for this study. The pET3a vector contains a promoter and 33 bp of the 5' reading frame of bacteriophase T7. T7 polymerase is under the regulatory control of an isopropyl-b-D-thiogalactopyranoside (IPTG)-inducible lac UV5 promoter found in the E. coli BL21 (DE3) strain. Thus, by the addition of IPTG to E. coli BL21 (DE3) transformed with pET3a, the T7 promoter will be activated.
Constructs are prepared containing the truncated cDNA of Fig. 2 fused in reading frame by deletion of the BamHI/EcoRI fragment and replacement of the thioesterase sequence. E. coli are transformed with pET3a constructs containing the thioesterase (pET3a-THI0) and unmodified pET3a as a control. The E. coli are grown at 37°C in liquid medium and expression is induced by the addition of 1mM IPTG. […]

[2] = test system: Cuphea C10 acyl-ACP thioesterase; experiment: Cuphea thioesterase substrate specificity at the hydroxyapatite stage (Example 9A); assay type: biochemical, Cuphea hookeriana; details: hydroxyapatite stage in purification
Method: Following the same general procedures as outlined in Example 1, to assay for C10 thioesterase activity, the following mixture is incubated at 30° for 10-60 min: 50µl sample to be tested in the same or similar "extraction buffer" described in Example 9A, and approximately 250pmol of [^14C]-radiolabeled acyl-ACP substrate, (usually decanoyl-ACP is labeled in the carboxylate group to 50-60µCi/µmol) in a total volume of […], for a final decanoyl-ACP concentration of 0.5-5.0µM, typically 5.0µM. The reaction is stopped by adding 0.5ml 10% (v/v) cold (4°) acetic acid and placing the reaction mixture on ice for a few minutes. The fatty acid product of the hydrolytic enzyme action is extracted away from the unhydrolyzed substrate by adding 2ml diethyl ether and mixing vigorously. The ether is transferred to 5ml scintillation fluid for scintillation counting. Additional ether extracts may be performed to recover remaining traces of product for more accurate quantitation of the activity if desired.
The resulting preparation is then subjected to hydroxyapatite column chromatography. The following method applies to ammonium sulfate fraction from 100g fresh weight of starting seed tissue. The dialyzed ammonium sulfate fraction (35-40ml) is applied to a column of hydroxyapatite (2.5cm x 14cm bed height of Bio-Gel HTP from Bio-Rad Inc.; Richmond, CA, catalog no. 130-0420), equilibrated in 50mM KH2PO4-KOH pH 6.9, 10% (v/v) glycerol, 4mM 2-mercaptoethanol. The column is then washed (flow rate 1.5ml/min throughout) with 280ml of the same buffer. Elution is accomplished with a 580ml linear gradient from these conditions to 350mM KH2PO4-KOH pH 6.9, 10% (v/v) glycerol, 4mM 2-mercaptoethanol, collecting fractions of 12ml volume. The eluted fractions are assayed for hydrolase activity using decanoyl-ACP as substrate. […]
The substrate specificity of Cuphea C10 acyl-ACP thioesterase towards medium-chain acyl-ACP's has been determined at the hydroxyapatite stage in purification, as described in Example 9A: Table 6

[3] = test system: control induced E. coli lysate; experiment: Acyl-ACP hydrolysis by control E. coli lysate (bay thioesterase gene in opposite orientation); assay type: biochemical; details: Dilution 1/4000, one hour induction with 0.1mM IPTG
Method: as §1, §2
The resulting construct, pCGN3823, and a control Bluescribe construct having the bay thioesterase gene inserted in the opposite orientation are transformed into E. coli. The E. coli cells are grown at 37°C in liquid medium and expression from the lac promoter is induced by addition of IPTG to a final concentration of 0.1mM IPTG. Following one hour of induction, cells are harvested, lysed and assayed as described above for the truncated bay thioesterase.

Substance: 14:0-ACP
- Hydrolysis Activity (mean cpm in ether extract) [1]: 1271 cpm
- Hydrolysis Activity (mean) [2]: 4055 pmol/min
- Hydrolysis Activity (mean cpm in ether extract) [3]: 0 cpm

Substance: 16:0-ACP
- Hydrolysis Activity (mean cpm in ether extract) [1]: 2848 cpm
- Hydrolysis Activity (mean cpm in ether extract) [3]: 13 cpm

Substance: decanoyl-ACP [10:0-ACP]
- Hydrolysis Activity (mean cpm in ether extract) [1]: 787 cpm
- Hydrolysis Activity (mean) [2]: 6950 pmol/min
- Hydrolysis Activity (mean cpm in ether extract) [3]: 0 cpm

Substance: lauroyl-ACP [12:0-ACP]
- Hydrolysis Activity (mean cpm in ether extract) [1]: 1028 cpm
- Hydrolysis Activity (mean) [2]: 1032 pmol/min
- Hydrolysis Activity (mean cpm in ether extract) [3]: 0 cpm
